Values joined by “and” are separate entries in the source; they are usually repeats but may differ in a detail not shown here. Equal values may be shown once.
Legend:
[1] = system: mould; assay: Mould count of spent brewer's / wet distiller's grains stored at ambient temperature; assay type: cell-based
Protocol: (§1) Samples of Portion 1 (“AR”), Portion 3 (“SO”) and Portion 5 (“SH”) were then delivered to a microbiological testing facility about 15 kilometres from the treatment laboratory. Each was tested for initial total microbial, yeast and mould counts, respectively.
(§2) Separate untreated samples were similarly stored under insect-proof screens at ambient temperature for seven days (as shown in Tables 1 and 2). During the trial period the ambient temperature ranged from 11 to 33 degrees C.
(§3) The free moisture content on the initial spent brewer's grains was determined to be 78.1% m/m. After exposure to the environment for seven days, all of the samples were tested at a South African National Accreditation System (SANAS) approved microbiological testing facility. Each was tested for total micro-organism, yeast and mould counts to determine the affect of the various treatments. A similar procedure to that described in K. A. Rosentrater et al, Food Bioprocess Technol (2008) was used for the microbiological evaluation.
(§4) At the laboratory, the samples were thoroughly mixed and initially split into a first portion (Portion 1) and a second portion (Portion 2). Portion 1 was left untreated. A sample of Portion 1, was delivered immediately to a microbiological testing facility about 15 kilometres away from the treatment laboratory and was tested for initial total microbial, yeast and mould counts, respectively. No water removal prior to treatment was done in this experiment as was the case in Example 8 wherein a similar wet material was partially dewatered by pressing and the residue treated with 10% (w/w/) calcium oxide.
Samples from Portion 2 were subjected to treatment with varying amounts of a powdered, commercially-available calcium oxide containing approximately 94% calcium oxide (CaO) as shown in Table 32. […] The samples were stored in batches (according to the calcium oxide treatment) under insect-proof screens at ambient temperature for fifty six days. Separate untreated samples were similarly stored under insect-proof screens at ambient temperature for a total of 56 days. During the trial period the ambient temperature ranged from 10 to 30 degrees C. As this period was the southern hemisphere spring/early summer, the humidity as well as ambient temperatures varied widely.
as §3, with “79.4%” for “78.1%”
(§5) Samples from each treatment were drawn every seven days. No further calcium oxide treatment or agitation took place after the initial mix. In each case the entire sample was isolated and delivered to the microbiological testing facility.
(§6) The calcium oxide treatment trial described in Example 9 wherein wet distiller's grains were treated with 2.5%, 5% and 10.0% calcium oxide, respectively, versus untreated material was repeated using lower doses of calcium oxide. In this trial the same source of wet distiller's grains (again with now partial water removal prior to treatment) was treated. Also, the same protocol as described in Example 9 was applied, but at lower doses of calcium oxide i.e. 0.5%, 1.0%, 1.5%, 2.0% and 2.5%, respectively, versus untreated material.
(§7) In this trial the same source of wet distiller's grains (again with now partial water removal prior to treatment) was treated. Also, the same protocol as described in Example 9 was applied.

[2] = system: yeast; assay: Yeast count of spent brewer's / wet distiller's grains stored at ambient temperature; assay type: cell-based; details: dose 10% (w/w)
Protocol: as §1, §2, §3, §4
Samples from Portion 2 were subjected to treatment with varying amounts of a powdered, commercially-available calcium oxide containing approximately 94% calcium oxide (CaO) as shown in Table 32. The treatments varied from 2.5 to 10% (w/w) calcium oxide addition. The samples were stored in batches (according to the calcium oxide treatment) under insect-proof screens at ambient temperature for fifty six days. Separate untreated samples were similarly stored under insect-proof screens at ambient temperature for a total of 56 days. During the trial period the ambient temperature ranged from 10 to 30 degrees C. As this period was the southern hemisphere spring/early summer, the humidity as well as ambient temperatures varied widely.
as §3, with “79.4%” for “78.1%”
as §5, §6, §7

[3] = pH of suspensions of grain samples in distilled water or PBS; details: 1% (w/w) in distilled water
Protocol: The untreated sample (A) was compared visually against the corresponding quicklime-treated sample (B).
On Day 7, 10 g amounts of each sample were suspended in either 90 ml PBS or 90 ml sterile distilled water and shaken for 10 minutes. The pH of each suspension was then measured and compared.
On Day 9, 10 g of each sample was suspended in 90 ml PBS and shaken for 10 minutes. The pH was measured.

[4] = system: Escherichia coli; assay: Spiking test of agar plates with Escherichia coli (kill versus inhibition); assay type: cell-based; details: spiking test
Protocol: When performing total viable counts (TVCs), the agar plates (when they were molten and containing 1 ml of the test sample dilution) were spiked with bacterial organisms (E. Coli and P. aeruginosa) of a known concentration. If the organisms grew, this would indicate that the conditions in the agar plate had not inhibited them. A control with no sample was run at the same time. […]
The plates were incubated at 30-35° C. for approximately 24 hours after which time the bacterial colonies were counted.
. […] This was performed in duplicate.

[5] = E. coli NCIMB 8545, dilution −1 in PBS
[6] = E. coli NCIMB 8545, dilution −2 in PBS
[7] = E. coli NCIMB 8545, dilution −3 in PBS
[8] = E. coli NCIMB 8545, dilution −4 in PBS
[9] = E. coli NCIMB 8545, dilution −5 in PBS
[10] = E. coli NCIMB 8545, saturated solution Neat (control mean 215)

SMILES: [Ca+2].[O-]CC(O)CO.[O-]CC(O)CO [Ca-DGO granules]
- Mould Count ([1]; dose 10% (w/w), week 0): <10 cfu/gram
- Mould Count ([1]; dose 10% (w/w), week 1): <10 cfu/gram
- Mould Count ([1]; dose 10% (w/w), week 2): <10 cfu/gram
- Mould Count ([1]; dose 10% (w/w), week 3): <10 cfu/gram
- Mould Count ([1]; dose 10% (w/w), week 4): <10 cfu/gram
- Mould Count ([1]; dose 10% (w/w), week 5): <10 cfu/gram
- Mould Count ([1]; dose 10% (w/w), week 6): <10 cfu/gram
- Mould Count ([1]; dose 10% (w/w), week 7): 400 cfu/gram
- Mould Count ([1]; dose 10% (w/w), week 8): 250 cfu/gram
- Mould Count ([1]; dose 10% (w/w), week 9): <10 cfu/gram
- Mould Count ([1]; dose 15% (w/w), week 0): <10 cfu/gram
- Mould Count ([1]; dose 15% (w/w), week 1): <10 cfu/gram
- Mould Count ([1]; dose 15% (w/w), week 2): <10 cfu/gram
- Mould Count ([1]; dose 15% (w/w), week 3): <10 cfu/gram
- Mould Count ([1]; dose 15% (w/w), week 4): <10 cfu/gram
- Mould Count ([1]; dose 15% (w/w), week 5): <10 cfu/gram
- Mould Count ([1]; dose 15% (w/w), week 6): <10 cfu/gram
- Mould Count ([1]; dose 15% (w/w), week 7): <10 cfu/gram
- Mould Count ([1]; dose 15% (w/w), week 8): <10 cfu/gram
- Mould Count ([1]; dose 15% (w/w), week 9): <10 cfu/gram
- Yeast Count ([2]; week 3): <10 cfu/gram
- Yeast Count ([2]; week 4): <10 cfu/gram
- Yeast Count ([2]; week 5): 100 cfu/gram
- Yeast Count ([2]; week 6): <10 cfu/gram
- Yeast Count ([2]; week 9): <10 cfu/gram
- pH ([3]; dose 10% (w/w), week 0): 10.2
- pH ([3]; dose 10% (w/w), week 1): 9.87
- pH ([3]; dose 10% (w/w), week 2): 7.09
- pH ([3]; dose 10% (w/w), week 3): 7.90
- pH ([3]; dose 10% (w/w), week 4): 8.89
- pH ([3]; dose 10% (w/w), week 5): 6.83
- pH ([3]; dose 10% (w/w), week 6): 8.93
- pH ([3]; dose 10% (w/w), week 7): 7.24
- pH ([3]; dose 10% (w/w), week 8): 8.63
- pH ([3]; dose 10% (w/w), week 9): 8.96
- pH ([3]; dose 15% (w/w), week 0): 11.53
- pH ([3]; dose 15% (w/w), week 1): 11.35
- pH ([3]; dose 15% (w/w), week 2): 6.61
- pH ([3]; dose 15% (w/w), week 3): 8.03
- pH ([3]; dose 15% (w/w), week 4): 8.54
- pH ([3]; dose 15% (w/w), week 5): 7.20
- pH ([3]; dose 15% (w/w), week 6): 9.25
- pH ([3]; dose 15% (w/w), week 7): 7.21
- pH ([3]; dose 15% (w/w), week 8): 9.17
- pH ([3]; dose 15% (w/w), week 9): 8.95

SMILES: [Ca+2].[O-2] [CaO powder]
- Mould Count ([1]; dose 5% (w/w), week 0): <10 cfu/gram
- Mould Count ([1]; dose 5% (w/w), week 1): <10 cfu/gram
- Mould Count ([1]; dose 5% (w/w), week 2): <10 cfu/gram
- Mould Count ([1]; dose 5% (w/w), week 3): <10 cfu/gram
- Mould Count ([1]; dose 5% (w/w), week 4): <10 cfu/gram
- Mould Count ([1]; dose 5% (w/w), week 5): <10 cfu/gram
- Mould Count ([1]; dose 5% (w/w), week 6): <10 cfu/gram
- Mould Count ([1]; dose 5% (w/w), week 7): <10 cfu/gram
- Mould Count ([1]; dose 5% (w/w), week 8): <10 cfu/gram
- Mould Count ([1]; dose 5% (w/w), week 9): <10 cfu/gram
- Mould Count ([1]; dose 10% (w/w), week 0): <10 cfu/gram
- Mould Count ([1]; dose 10% (w/w), week 1): <10 cfu/gram
- Mould Count ([1]; dose 10% (w/w), week 2): <10 cfu/gram
- Mould Count ([1]; dose 10% (w/w), week 3): <10 cfu/gram
- Mould Count ([1]; dose 10% (w/w), week 4): <10 cfu/gram
- Mould Count ([1]; dose 10% (w/w), week 5): <10 cfu/gram
- Mould Count ([1]; dose 10% (w/w), week 6): <10 cfu/gram
- Mould Count ([1]; dose 10% (w/w), week 7): 3500 cfu/gram
- Mould Count ([1]; dose 10% (w/w), week 8): <10 cfu/gram
- Mould Count ([1]; dose 10% (w/w), week 9): <10 cfu/gram
- Yeast Count ([2]; week 3): <10 cfu/gram
- Yeast Count ([2]; week 4): <10 cfu/gram
- Yeast Count ([2]; week 5): <10 cfu/gram
- Yeast Count ([2]; week 6): <10 cfu/gram
- Yeast Count ([2]; week 9): <10 cfu/gram
- pH ([3]; dose 5% (w/w), week 0): 12.93
- pH ([3]; dose 5% (w/w), week 1): 12.05
- pH ([3]; dose 5% (w/w), week 2): 11.19
- pH ([3]; dose 5% (w/w), week 3): 7.82
- pH ([3]; dose 5% (w/w), week 4): 9.23
- pH ([3]; dose 5% (w/w), week 5): 7.55
- pH ([3]; dose 5% (w/w), week 6): 9.23
- pH ([3]; dose 5% (w/w), week 7): 7.28
- pH ([3]; dose 5% (w/w), week 8): 7.60
- pH ([3]; dose 5% (w/w), week 9): 8.45
- pH ([3]; dose 10% (w/w), week 0): 13.12
- pH ([3]; dose 10% (w/w), week 1): 12.56
- pH ([3]; dose 10% (w/w), week 2): 12.38
- pH ([3]; dose 10% (w/w), week 3): 12.36
- pH ([3]; dose 10% (w/w), week 4): 12.20
- pH ([3]; dose 10% (w/w), week 5): 12.12
- pH ([3]; dose 10% (w/w), week 6): 11.92
- pH ([3]; dose 10% (w/w), week 7): 7.56
- pH ([3]; dose 10% (w/w), week 8): 8.38
- pH ([3]; dose 10% (w/w), week 9): 11.77

SMILES: [Ca+2].[OH-].[OH-] [calcium hydroxide]
- Individual count [4, 5]: 197 and 209
- Mean count [4, 5]: 203
- Individual count [4, 6]: 194 and 203
- Mean count [4, 6]: 199
- Individual count [4, 7]: 192 and 240
- Mean count [4, 7]: 216
- Individual count [4, 8]: 194 and 196
- Mean count [4, 8]: 195
- Individual count [4, 9]: 235 and 194
- Mean count [4, 9]: 215
- Individual count [4, 10]: 216 and 191
- Mean count [4, 10]: 205

Source: US20120009280A1, “METHOD OF REDUCING THE RATE OF DEGRADATION OF A BIOLOGICAL MATERIAL” (Bio-Energy Ingredients Limited, priority 2009, published 2012)
